The source of these data is patent US20230167105A1, “BCL-2 PROTEIN INHIBITORS” (Recurium IP Holdings, LLC, priority 2020, published 2023).

One assay has as its target T1, Bcl-xL (Homo sapiens, UniProt Q07817).
T1 construct: endogenous in cells; host or cells: MOLT-4 (ATCC CRL-1582)
In words: Protein Degradation Assay in MOLT-4 Cells (Western blot). The assay is classed as cell-based. To be noted: for BCL-xL degradation in MOLT-4 cells: 50 nM compound, 16 hours, FIGS. 7 and 8. On the procedure:
MOLT-4 (ATCC, CRL-1582) (FIGS. 7,8) were incubated with vehicle or 50 nM concentrations of the indicated compounds for 16 hours. For proteasome inhibition, MOLT-4 cells (250,000 cells/well) were pretreated with 1 μM of MG132 for 1 hour before the addition of 100 nM of the indicated compounds for 16 h. After treatment, the cells were harvested in RIPA lysis buffer supplemented with 1% Phosphatase Inhibitor and Protease Inhibitor Cocktail. An equal amount of protein (10 μg/lane) from each cell extract was resolved on a 4-12% Bis-Tris gel. Proteins were transferred using iBlot 2 Transfer Stacks. The membranes were blocked with 5% nonfat milk in TBS-T buffer (50 mM Tris-HCL, pH 7.6; 150 mM NaCl; and 0.05% Tween) and probed with primary antibodies (1:1000 dilution) overnight at 4° C. After three washes with TBS-T (10 min/wash), the membranes were incubated with an appropriate peroxidase-conjugated secondary antibody (Cell Signaling Technology, USA) for 1 hour at rt. After three washes with TBS-T, the proteins of interest were detected with ECL Western Blotting Detection Reagents and captured with an Azure imaging system. The band intensities were determined using ImageJ software and normalized to loading control β-actin or GAPDH. The primary antibodies Bcl-xL (#2762), Bcl-2 (#2872s), and GAPDH (#5174) were purchased from Cell Signaling Technology.
On the technique in general: A western blot detects proteins with antibodies after separation by electrophoresis.

The subject of the next assay is MOLT-4 cells. In words: MOLT-4 Cell Proliferation Assay (CellTiter-Glo). The assay is classed as cell-based. To be noted: Homo sapiens, 72 h, read-out: MOLT-4 CTG IC50. On the procedure: Cell proliferation was measured using the CellTiter-Glo® Luminescent Cell Viability Assay. The assay involved the addition of a single reagent (CellTiter-Glo® Reagent) directly to cells cultured in serum-supplemented medium. MOLT-4 cells (ATCC, CRL-1582) were cultured according to ATCC recommendations and were seeded at 50,000 cells per well.
Each compound evaluated was prepared as a DMSO stock solution (10 mM). Compounds were tested in duplicate on each plate, with a 10-point serial dilution curve (1:3 dilution). The highest compound concentration was 10 μM (final), with a 0.1% final DMSO concentration. Plates were then incubated at 37° C., 5% CO2 for 72 h, cell plates were equilibrated at rt for approximately 30 mins. An equi-volume amount of CellTiter-Glo® Reagent (100 μL) was added to each well. Plates were mixed for 2 mins on an orbital shaker to induce cell lysis and then incubated at rt for 10 mins to stabilize the luminescent signal. Luminescence was recorded using a Envision plate reader according to CellTiter-Glo protocol. IC50 of each compound was calculated using GraphPad Prism by nonlinear regression analysis.
(In general: Cellular ATP, detected with luciferase, serves as a proxy for viable cell number.)

T1 sequence (Q07817 whole entry): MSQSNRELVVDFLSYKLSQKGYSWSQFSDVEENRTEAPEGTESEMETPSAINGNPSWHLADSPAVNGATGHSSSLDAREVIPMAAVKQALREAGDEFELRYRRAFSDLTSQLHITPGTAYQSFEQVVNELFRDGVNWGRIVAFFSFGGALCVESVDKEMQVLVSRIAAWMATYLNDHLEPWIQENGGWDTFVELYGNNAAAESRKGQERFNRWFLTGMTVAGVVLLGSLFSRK

Broadly, the IC50 is the concentration needed to halve the response being measured. As for `Cc1ncsc1-c1ccc([C@H](C)NC(=O)[C@@H]2C[C@@H](O)CN2C(=O)[C@@H](NC(=O)CCCCCCN2CCN(CC[C@H](CSc3ccccc3)Nc3ccc(S(=O)(=O)NC(=O)c4ccc(N5CCN(CC6=C(C78CC(C)(C7)C8)CC(C)(C)CC6)CC5)cc4)cc3S(=O)(=O)C(F)(F)F)CC2)C(C)(C)C)cc1` [Example 25, (2S,4R)-1-((S)-2-(7-(4-((R)-3-((4-(N-(4-(4-((4,4-dimethyl-2-(3-methylbicyclo[1.1.1]pentan-1-yl)cyclohex-1-en-1-yl)methyl)piperazin-1-yl)benzoyl)sulfamoyl)-2-((trifluoromethyl)sulfonyl)phenyl)amino)-4-(phenylthio)butyl)piperazin-1-yl)heptanamido)-3,3-dimethylbutanoyl)-4-hydroxy-N—((S)-1-(4-(4-methylthiazol-5-yl)phenyl)ethyl)pyrrolidine-2-carboxamide], at Bcl-xL, the “BCL-xL degradation in MOLT-4 cells” value is listed as “induce BCL-xL degradation”. Further, the half-maximal inhibitory concentration (IC50) in the assay with MOLT-4 cells was 50 to 150 nM.

With `Cc1ncsc1-c1ccc([C@H](C)NC(=O)[C@@H]2C[C@@H](O)CN2C(=O)[C@@H](NC(=O)CCCCC(=O)N(C)C2CCN(CC[C@H](CSc3ccccc3)Nc3ccc(S(=O)(=O)NC(=O)c4ccc(N5CCN(CC6=C(C78CC(C(F)F)(C7)C8)CC(C)(C)CC6)CC5)cc4)cc3S(=O)(=O)C(F)(F)F)CC2)C(C)(C)C)cc1` [Example 43, N1-(1-((R)-3-((4-(N-(4-(4-((2-(3-(difluoromethyl)bicyclo[1.1.1]pentan-1-yl)-4,4-dimethylcyclohex-1-en-1-yl)methyl)piperazin-1-yl)benzoyl)sulfamoyl)-2-((trifluoromethyl)sulfonyl)phenyl)amino)-4-(phenylthio)butyl)piperidin-4-yl)-N6-((S)-1-((2S,4R)-4-hydroxy-2-(((S)-1-(4-(4-methylthiazol-5-yl)phenyl)ethyl)carbamoyl)pyrrolidin-1-yl)-3,3-dimethyl-1-oxobutan-2-yl)-N1-methyladipamide], the “BCL-xL degradation in MOLT-4 cells” value at Bcl-xL is given as “induce BCL-xL degradation”. Moreover, the IC50 in the assay with MOLT-4 cells is 50 to 150 nM.

Regarding `CC1(C)CCC(CN2CCN(c3ccc(C(=O)NS(=O)(=O)c4ccc(N[C@H](CCN5CCN(CCCC#Cc6ccc7c(c6)CN(C6CCC(=O)NC6=O)C7=O)CC5)CSc5ccccc5)c(S(=O)(=O)C(F)(F)F)c4)cc3)CC2)=C(C23CC(C(F)F)(C2)C3)C1` (stereo partly drawn) [Example 30], the “BCL-xL degradation in MOLT-4 cells, dose dependence” value on Bcl-xL (FIG. 9) was “can induce BCL-xL degradation in MOLT-4 cells in a dose dependent manner”. Moreover, the “Bcl-xL degradation with proteasome inhibitor MG132” value on Bcl-xL (MOLT-4 cells pretreated with 1 μM MG132 for 1 hour, then 100 nM compound for 16 h, FIG. 10) is given as “can be inhibited by proteasome inhibitor MG132”. The IC50 in the assay with MOLT-4 cells is no more than 50 nM.

`Cc1ncsc1-c1ccc([C@H](C)NC(=O)[C@@H]2C[C@@H](O)CN2C(=O)[C@@H](NC(=O)CCCCCC(=O)N(C)C2CCN(CC[C@H](CSc3ccccc3)Nc3ccc(S(=O)(=O)NC(=O)c4ccc(N5CCN(CC6=C(C78CC(C(F)F)(C7)C8)CC(C)(C)CC6)CC5)cc4)cc3S(=O)(=O)C(F)(F)F)CC2)C(C)(C)C)cc1` [Example 44, N1-(1-((R)-3-((4-(N-(4-(4-((2-(3-(difluoromethyl)bicyclo[1.1.1]pentan-1-yl)-4,4-dimethylcyclohex-1-en-1-yl)methyl)piperazin-1-yl)benzoyl)sulfamoyl)-2-((trifluoromethyl)sulfonyl)phenyl)amino)-4-(phenylthio)butyl)piperidin-4-yl)-N7-((S)-1-((2S,4R)-4-hydroxy-2-(((S)-1-(4-(4-methylthiazol-5-yl)phenyl)ethyl)carbamoyl)pyrrolidin-1-yl)-3,3-dimethyl-1-oxobutan-2-yl)-N1-methylheptanediamide]: on Bcl-xL, the “BCL-xL degradation in MOLT-4 cells” value is on record as “induce BCL-xL degradation”. Further, the IC50 in the assay with MOLT-4 cells was in the range of 50 to 150 nM.

Consider `Cc1ncsc1-c1ccc([C@H](C)NC(=O)[C@@H]2C[C@@H](O)CN2C(=O)[C@@H](NC(=O)CCCCCCCN(C)CC[C@H](CSc2ccccc2)Nc2ccc(S(=O)(=O)NC(=O)c3ccc(N4CCN(CC5=C(C67CC(C(F)F)(C6)C7)CC(C)(C)CC5)CC4)cc3)cc2S(=O)(=O)C(F)(F)F)C(C)(C)C)cc1` [Example 28, (2S,4R)-1-((S)-2-(8-(((R)-3-((4-(N-(4-(4-((2-(3-(difluoromethyl)bicyclo[1.1.1]pentan-1-yl)-4,4-dimethylcyclohex-1-en-1-yl)methyl)piperazin-1-yl)benzoyl)sulfamoyl)-2-((trifluoromethyl)sulfonyl)phenyl)amino)-4-(phenylthio)butyl)(methyl)amino)octanamido)-3,3-dimethylbutanoyl)-4-hydroxy-N—((S)-1-(4-(4-methylthiazol-5-yl)phenyl)ethyl)pyrrolidine-2-carboxamide], for which the “BCL-xL degradation in MOLT-4 cells” value on Bcl-xL is given as “induce BCL-xL degradation”. Further, the half-inhibitory concentration (IC50) with MOLT-4 cells was 50 to 150 nM.

In the case of `CN(CCCCCCNc1cccc2c1C(=O)N(C1CCC(=O)NC1=O)C2=O)CC[C@H](CSc1ccccc1)Nc1ccc(S(=O)(=O)NC(=O)c2ccc(N3CCN(CC4=C(C56CC(C(F)F)(C5)C6)CC(C)(C)CC4)CC3)cc2)cc1S(=O)(=O)C(F)(F)F` (stereo partly drawn) [Example 21, 4-(4-((2-(3-(difluoromethyl)bicyclo [1.1.1]pentan-1-yl)-4,4-dimethylcyclohex-1-en-1-yl)methyl)piperazin-1-yl)-N-((4-(((2R)-4-((6-((2-(2,6-dioxopiperidin-3-yl)-1,3-dioxoisoindolin-4-yl)amino)hexyl)(methyl)amino)-1-(phenylthio)butan-2-yl)amino)-3-((trifluoromethyl)sulfonyl)phenyl)sulfonyl)benzamide], in the assay on MOLT-4 cells, the IC50 lay within 50 to 150 nM.

As for `Cc1ncsc1-c1ccc([C@H](C)NC(=O)[C@@H]2C[C@@H](O)CN2C(=O)[C@@H](NC(=O)CCCCCCC(=O)N2CCN(CC[C@H](CSc3ccccc3)Nc3ccc(S(=O)(=O)NC(=O)c4ccc(N5CCN(CC6=C(C78CC(C(F)F)(C7)C8)CC(C)(C)CC6)CC5)cc4)cc3S(=O)(=O)C(F)(F)F)CC2)C(C)(C)C)cc1` [Example 23, (2S,4R)-1-((S)-2-(8-(4-((R)-3-((4-(N-(4-(4-((2-(3-(difluoromethyl)bicyclo[1.1.1]pentan-1-yl)-4,4-dimethylcyclohex-1-en-1-yl)methyl)piperazin-1-yl)benzoyl)sulfamoyl) ((trifluoromethyl)sulfonyl)phenyl)amino)-4-(phenylthio)butyl)piperazin-1-yl)-8-oxooctanamido)-3,3-dimethylbutanoyl)-4-hydroxy-N—((S)-1-(4-(4-methylthiazol-5-yl)phenyl)ethyl)pyrrolidine-2-carboxamide], the IC50 in the assay on MOLT-4 cells lay within 50 to 150 nM.

Consider `CC1(C)CCC(CN2CCN(c3ccc(C(=O)NS(=O)(=O)c4ccc(N[C@H](CCN5CCN(CCCNc6cccc7c6C(=O)N(C6CCC(=O)NC6=O)C7=O)CC5)CSc5ccccc5)c(S(=O)(=O)C(F)(F)F)c4)cc3)CC2)=C(C23CC(C(F)F)(C2)C3)C1` (stereo partly drawn) [Example 5, 4-[4-[[2-[3-(difluoromethyl)-1-bicyclo [1.1.1]pentanyl]-4,4-dimethyl-cyclohexen-1-yl]methyl]piperazin-1-yl]-N-[4-[[(1R)-3-[4-[3-[[2-(2,6-dioxo-3-piperidyl)-1,3-dioxo-isoindolin-4-yl]amino]propyl]piperazin-1-yl]-1-(phenylsulfanylmethyl)propyl]amino]-3-(trifluoromethylsulfonyl)phenyl]sulfonyl-benzamide], for which, in the assay with MOLT-4 cells, the IC50 was no more than 50 nM.

With `Cc1ncsc1-c1ccc([C@H](CC(=O)NCCCCCCN(C)CC[C@H](CSc2ccccc2)Nc2ccc(S(=O)(=O)NC(=O)c3ccc(N4CCN(CC5=C(C67CC(C(F)F)(C6)C7)CC(C)(C)CC5)CC4)cc3)cc2S(=O)(=O)C(F)(F)F)NC(=O)[C@@H]2C[C@@H](O)CN2C(=O)[C@@H](NC(=O)C2(F)CC2)C(C)(C)C)cc1` [Example 49, (2S,4R)—N-[(1S)-3-[6-[[(3R)-3-[4-[[4-[4-[[2-[3-(difluoromethyl)-1-bicyclo[1.1.1]pentanyl]-4,4-dimethyl-cyclohexen-1-yl]methyl]piperazin-1-yl]benzoyl]sulfamoyl]-2-(trifluoromethylsulfonyl)anilino]-4-phenylsulfanyl-butyl]-methyl-amino]hexylamino]-1-[4-(4-methylthiazol-5-yl)phenyl]-3-oxo-propyl]-1-[(2S)-2-[(1-fluorocyclopropanecarbonyl)amino]-3,3-dimethyl-butanoyl]-4-hydroxy-pyrrolidine-2-carboxamide], in the assay with MOLT-4 cells, the IC50 is no less than 150 nM.
